From patent US9365614B2, “IAP BIR domain binding compounds” (priority 2006, dated 2016)

Assays:
[1] = molecular target: T1, XIAP linker BIR2-BIR3-ring (GST-linker BIR 2 BIR3Ring) (Homo sapiens, UniProt P98170); assay: Fluorescence polarization competition assay, BIR2-BIR3-ring, probe P2; type: binding; conditions: BIR2-BIR3-ring FP assay
T1 construct: made in house; host or cells: E. coli DH5-alpha
Description: GST-linker BIR 2 BIR3Ring: XIAP coding sequence from amino acids 93-497 cloned into PGex4T1 via BamH1 and XhoI. Amino acids 93-497 were amplified from full length XIAP in pGex4t3, using the primers: […] (SEQ ID NO: 7) and GCTGCATGTGTGTCAGAGG (SEQ ID NO: 8), using standard PCR conditions. The PCR fragment was TA cloned into pCR-2.1 (invitrogen). Linker BIR 2 BIR 3Ring was subcloned into pGex4T1 by BamHI/XhoI digestion. The plasmid was transformed into E. coli DH5a for use in protein expression and purification.
For all assays, the fluorescence and fluorescence-polarization was evaluated using a Tecan Polarion instrument with the excitation filter set at 485 nm and the emission filter set at 535 nm. […] Upon establishing these conditions, the compounds potency (IC50) and selectivity, was assessed in the presence of a fix defined-amount of target protein and fluorescent probe and a 10 point serial dilution of the selected compounds. […] Auto-fluorescence for each compound was first assessed by performing a reading of the compound/BSA solution alone. Then 25 uL of the fluorescein probe diluted into 50 mM MES containing 0.05 mg/ml BSA were added and a reading to detect quenching of fluorescein signal done. […]
The ki of various compounds in the BIR2-BIR3-ring FP assay, using probe P2, was determined as described above.

PC3 cells = assay: Survival assay (MTS), PC3; type: cell-based; conditions: Homo sapiens, PC-3; in the presence of TRAIL (1-3 ng/ml)
Experimental: (§1) Survival assays were performed on various cell lines including MDA-MB-231, SKOV3, H460, PC3, HCT-116, and SW480 cells. Cells were seeded in 96 well plates at a respective density of 5000 and 2000 cells per well and incubated at 37° C. in presence of 5% CO2 for 24 hours. Selected compounds were diluted into the media at various concentration ranging from 0.01 uM up to 100 uM. Diluted compounds were added onto the MDA-MB-231 cells. For the MDA-MB-231 SKOV3, H460, PC3, HCT-116, and SW480 cells, the compounds were added either alone or in presence of 1-3 ng/ml of TRAIL. After 72 hours cellular viability was evaluated by MTS based assays. A solution of [3-(4,5-dimethylthiazol-2-yl)-5-(3-carboxymethoxyphenyl)-2-(4-sulfophenyl)-2H-tetrazolium, inner salt; MTS] was added onto cells for a period of 1 to 4 hours. Upon incubation the amount of converted MTS was evaluated using a Tecan spectrophotometer set at 570 nm.

MDA-MB231 cells = assay: Survival MTT assay, MDA-MB-231; type: cell-based; conditions: Homo sapiens, 72 h
Experimental: (§2) One day prior the treatment with compound, 2000 to 4000 cells per well were plated in a tissue culture treated 96 well format dish with 100 ul of media and incubated at 37° C., 5% CO2. On the day of compound treatment, compounds were diluted with cell culture media to a working stock concentration of 2×. 100 uL of diluted compound were then added to each well. The treated plate was incubated for 72 h at 37° C., 5% CO2. Upon incubation, the cell viability was assessed as followed 20 uL of MTT reagent at 5 mg/ml were added per well to cell plate. The plate was incubated for 2 h at 37° C. in presence of 5% CO2. The supernatant was then removed from the plate and 100 uL of isopropanol were added. The absorbance was measured in a TECAN spectrophotometer at 570 nm. The percentage of viability was expressed in percentage of the signal obtained with non treated cells.

SKOV-3 cells = assay: Survival MTT assay, SKOV-3; type: cell-based; conditions: Homo sapiens, SK-OV-3, 72 h, read-out: EC50 against SKOV3
Experimental: as §2

HELA (cervical) cells = assay: Survival assay with TRAIL, HELA; type: cell-based; conditions: Homo sapiens, in the presence of TRAIL (1-3 ng/mL)
Experimental: as §1

HCT116 (colon) cells = assay: Survival assay with TRAIL, HCT116; type: cell-based; conditions: Homo sapiens, HCT-116; in the presence of TRAIL (1-3 ng/mL)
Experimental: as §1

OVCAR-3 (ovarian) cells = assay: Survival assay with TRAIL, OVCAR-3; type: cell-based; conditions: Homo sapiens, in the presence of TRAIL (1-3 ng/mL)
HEY (ovarian) cells = assay: Survival assay with TRAIL, HEY; type: cell-based; conditions: in the presence of TRAIL (1-3 ng/mL)
Experimental: as §1

H460 (lung) cells = assay: Survival assay with TRAIL, H460; type: cell-based; conditions: Homo sapiens, NCI-H460; in the presence of TRAIL (1-3 ng/mL)
Experimental: MDA-MD-231 (breast) and H460 (lung) cancer cells were cultured in RPMI1640 media supplemented with 10% FBS and 100 units/mL of Penicillin and Steptomycin.
as §1

T1 sequence (P98170 93-497): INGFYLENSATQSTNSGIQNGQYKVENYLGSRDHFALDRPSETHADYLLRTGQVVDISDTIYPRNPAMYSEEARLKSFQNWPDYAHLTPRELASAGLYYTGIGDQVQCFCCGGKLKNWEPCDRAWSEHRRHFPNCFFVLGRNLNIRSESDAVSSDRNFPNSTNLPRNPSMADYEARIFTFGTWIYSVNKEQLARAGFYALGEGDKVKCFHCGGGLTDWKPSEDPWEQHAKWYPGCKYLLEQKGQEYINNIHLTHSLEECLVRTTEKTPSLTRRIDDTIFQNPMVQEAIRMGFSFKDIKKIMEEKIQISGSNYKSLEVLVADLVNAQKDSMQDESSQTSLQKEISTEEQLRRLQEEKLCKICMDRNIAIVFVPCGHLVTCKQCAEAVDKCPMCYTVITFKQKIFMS

With `CN[C@@H](C)C(=O)N[C@H](C(=O)N1C[C@@H](NC(=O)c2ccc(C(=O)N[C@H]3C[C@@H](C(=O)N[C@@H]4CCCc5ccccc54)N(C(=O)[C@@H](NC(=O)[C@H](C)NC)C(C)(C)C)C3)cc2)C[C@H]1C(=O)N[C@@H]1CCCc2ccccc21)C(C)(C)C` [Compound 3] the Ki [1] was less than 100 nM, the EC50 (PC3 cells) was less than 1000 nM and the EC50 (MDA-MB231 cells) was less than 50 nM. The EC50 (SKOV-3 cells) was 1 nM, the EC50 (HELA (cervical) cells) was less than 1000 nM and the EC50 (HCT116 (colon) cells) was less than 1000 nM. The EC50 (OVCAR-3 (ovarian) cells) was less than 1000 nM, the EC50 (HEY (ovarian) cells) was less than 1000 nM and the EC50 (H460 (lung) cells) was less than 1000 nM.
